Data reported in publication PMC4871539 (PLoS ONE, 2016).

Key:
E. coli 35218R [1] = assay: microbe, parasite or virus in culture; settings: Escherichia coli
E. coli 35218R [2] = format: cell-based, Escherichia coli; settings: 30-μg cefoxitin disc
E. coli ATCC 35218 = format: cell-based, Escherichia coli; settings: 30-μg cefoxitin disc
[3] = mouse, in vivo; cited from earlier work
[4] = mouse, in vivo

Row | Molecule | MIC (E. coli 35218R [1]) [µg/mL] | other results
1 | C[C@H]1[C@H](NC(=O)/C(=N\OC(C)(C)C(=O)O)c2csc(N)n2)C(=O)N1S(=O)(=O)O [Aztreonam] | ≤ 1 | 
2 | CO/N=C(\C(=O)N[C@@H]1C(=O)N2C(C(=O)[O-])=C(C[N+]3(C)CCCC3)CS[C@H]12)c1csc(N)n1 [Cefepime] | ≤ 1 | 
3 | CO[C@@]1(NC(=O)Cc2cccs2)C(=O)N2C(C(=O)O)=C(COC(N)=O)CS[C@@H]21 [Cefoxitin] | ≤ 4 | inhibition zone (mean ± SD) (E. coli 35218R [2]): 27.9 ± 0.1 mm; inhibition zone (mean ± SD) (E. coli ATCC 35218): 27.2 ± 0.1 mm
4 | CC(C)(O/N=C(\C(=O)N[C@@H]1C(=O)N2C(C(=O)[O-])=C(C[n+]3ccccc3)CS[C@H]12)c1csc(N)n1)C(=O)O [Ceftazidime] | ≤ 1 | 
5 | CO/N=C(\C(=O)N[C@@H]1C(=O)N2C(C(=O)O)=C(CSc3nc(=O)c(=O)[nH]n3C)CS[C@H]12)c1csc(N)n1 [Ceftriaxone] | ≤ 1 | 
6 | C[C@@H](O)[C@H]1C(=O)N2C(C(=O)O)=C(S[C@@H]3CN[C@H](C(=O)Nc4cccc(C(=O)O)c4)C3)[C@H](C)[C@H]12 [Ertapenem] | ≤ 0.5 | 
7 | C[C@@H](O)[C@H]1C(=O)N2C(C(=O)O)=C(SCCN=CN)C[C@H]12 [Imipenem] | ≤ 1 | 
8 | C[C@@H](O)[C@H]1C(=O)N2C(C(=O)O)=C(S[C@@H]3CN[C@H](C(=O)N(C)C)C3)[C@H](C)[C@H]12 [Meropenem] | ≤ 0.25 | 
9 | CN[C@H](CC(C)C)C(=O)N[C@H]1C(=O)N[C@@H](CC(N)=O)C(=O)N[C@H]2C(=O)N[C@H]3C(=O)N[C@H](C(=O)N[C@H](C(=O)O)c4cc(O)cc(O)c4-c4cc3ccc4O)[C@H](O)c3ccc(c(Cl)c3)Oc3cc2cc(c3O[C@@H]2O[C@H](CO)[C@@H](O)[C@H](O)[C@H]2O[C@H]2C[C@](C)(N)[C@H](O)[C@H](C)O2)Oc2ccc(cc2Cl)[C@H]1O [vancomycin] |  | elimination half-life [3]: ~30 min
10 | piperacillin-tazobactam [Farmalogica] |  | bioequivalence test versus innovator [4]: passed
11 | piperacillin-tazobactam [Procaps] |  | bioequivalence test versus innovator [4]: passed
